Results taken from article PMC6473174, “Ranking Hits From Saturation Transfer Difference Nuclear Magnetic Resonance–Based Fragment Screening” (Frontiers in Chemistry, 2019).

Assays:
[1] = molecular target: Beta-lactamase (ampC; P00811); conditions: read-out: Affinity; AmpC fragment complexes, Figure 2; ref Barelier et al., 2014; cited from earlier work
[2] = molecular target: Heat shock protein HSP 90-alpha (HSP90AA1; P07900); parameters: method as in Roughley and Hubbard, 2011; conditions: HSP90 fragment complexes, Figure 2; ref Roughley and Hubbard, 2011; read-out: Affinity; cited from earlier work
[3] = molecular target: cAMP and cAMP-inhibited cGMP 3',5'-cyclic phosphodiesterase 10A (PDE10A; Q9Y233); parameters: method as in Recht et al., 2014; conditions: PDE10A fragment complexes, Figure 2; ref Recht et al., 2014; read-out: Affinity; cited from earlier work
[4] = molecular target: Glycogen synthase kinase-3 beta (GSK3B; P49841); conditions: GSK3b complex PDB 4J71, Figure S4; read-out: Affinity; cited from earlier work
murine langerin [5] = molecular target: T1, murine langerin (Mus musculus, UniProt Q8VBX4); experiment: STD NMR measurements (fragment screening and epitope mapping), STD amplification factor; format: binding
T1 sequence (Q8VBX4 1-331): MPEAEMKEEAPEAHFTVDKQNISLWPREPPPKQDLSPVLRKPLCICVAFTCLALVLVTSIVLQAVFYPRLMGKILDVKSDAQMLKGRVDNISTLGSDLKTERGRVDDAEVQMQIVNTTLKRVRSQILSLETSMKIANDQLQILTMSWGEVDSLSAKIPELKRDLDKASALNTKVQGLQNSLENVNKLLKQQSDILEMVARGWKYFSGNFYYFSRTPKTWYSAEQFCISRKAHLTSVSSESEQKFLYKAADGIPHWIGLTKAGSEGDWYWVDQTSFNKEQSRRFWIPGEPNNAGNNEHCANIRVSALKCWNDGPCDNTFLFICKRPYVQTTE
Description: STD NMR experiments were performed as described elsewhere (Aretz et al., [2018]). Briefly, 10 μM murine langerin was screened against a library of 660 fragments at a ligand concentration [L] = 0.2 mM using a saturation time of tsat = 4 s. Hits were counter-screened by SPR (see the section Estimation of Affinity Using Surface Plasmon Resonance), enabling affinity estimation and hit validation. For SPR-validated hits, the STD amplification factor was determined as reported earlier (Mayer and Meyer, [2001]) and plotted against affinity (Figure 1A). For epitope mapping of thiazolopyrimidine derivatives (Figure 2E), protein concentration was [P] = 20 μM, ligand concentration was [L] = 0.5–1 mM, and tsat = 1 s. Affinity of all derivatives was estimated by SPR (see the section Estimation of Affinity Using Surface Plasmon Resonance), and the STD amplification factor was determined as reported earlier for the proton in the 7-position of the thiazolopyrimidine scaffold (Mayer and Meyer, [2001]). Spectra were analyzed in MestReNova 10.0.0.

murine langerin [6] = molecular target: T1, murine langerin; parameters: method as in Aretz et al. (2018); conditions: estimated by SPR; murine langerin on CM7 chip; 25 mM HEPES pH 7.6, 150 mM NaCl, 5 mM CaCl2, 0.005% Tween-20; ref Aretz et al. (2018); read-out: Affinity; cited from earlier work
[7] = Figure 1a fragment screening, [P] = 10 μM, [L] = 0.2 mM, tsat = 4 s

SMILES	STD amplification factor (murine langerin [5]; [7])	Kd (murine langerin [6])	further results
O=C(O)c1sccc1S(=O)(=O)NC1CC1 [4KZA]			Kd [1]: 0.2 mM
C[C@@H](C(=O)O)N(c1ccccc1)S(C)(=O)=O [4KZB]			Kd [1]: 1.3 mM
NC(=O)c1ccccc1N [CHEMBL43175]			Kd [2]: > 0.4 mM
CC1CCCC(C(=O)O)N1C(=O)CCS (stereo not shown) [CHEMBL331575]			Kd [1]: 0.8 mM
Cc1nc2ccccc2c(=O)[nH]1 [CHEMBL395092]			Kd [3]: 0.99 mM
CCC(=O)c1ccc(O)cc1O [CHEMBL539379]			Kd [2]: 0.57 mM
COC(=O)Cc1cc(O)cc(O)c1 [CHEMBL540934]			Kd [2]: 0.49 mM
CCN1C(=O)CC(=O)N(CC)C1=S [CHEMBL2136061]			Kd [1]: 1.6 mM
C[C@@H]1Nc2cccnc2NC1=O [CHEMBL3941552]			Kd [4]: > 3 mM
Cc1nnc(-c2ccccc2)nc1O [S3]	19	4.7 ± 0.6 mM	
O=C(O)Cc1cccc2occc12 [S6]	55	4.3 ± 0.5 mM	
Cc1ccsc1/C=C/C(=O)O [S8]	86	3.4 ± 0.4 mM	
Nc1cccc2c1CN(C1CCCCC1)C2=O [S11]	23	0.7 ± 0.2 mM	
COc1ccc2c(c1)C(CC(=O)O)CC2=O (stereo not shown) [S12]	10	1.1 ± 0.2 mM	
N#Cc1c(N)sc2c1CCCC2 [S13]	33	1.5 ± 0.3 mM	
O=C(O)/C=C/c1ccc2c(c1)OCCO2 [S14]	36	2.2 ± 0.2 mM	
CN(C)S(=O)(=O)c1cccc(C(=O)O)c1 [S15]	41	11.3 ± 3 mM	
NC(=O)c1ccc(Cl)s1 [S18]	21	3.5 ± 0.2 mM	
CCC(C)(C(=O)O)c1cccs1 (stereo not shown) [S21]	13	3.3 ± 0.2 mM	
CN(C)C(=O)Oc1cccc(C(=O)O)c1 [S22]	24	~4 mM	
O=C1NC(=O)[C@@H]2CN(Cc3ccccc3)C[C@H]12 [S23]	4	4.9 ± 0.2 mM	

SMILES	STD amplification factor (murine langerin [5]; [7])	Kd (murine langerin [6])	further results
c1ccc(-c2nnc3n2CCCC3)cc1 [S30]	8	10 ± 3 mM	
COc1ccccc1/C=C1/C(=O)N=C(N)N1C [S31]	5	4 ± 2 mM	
CC(=O)c1ccn(S(=O)(=O)c2ccccc2)c1 [S36]	44	19 ± 1 mM	
CCN1C(=O)c2ccccc2NC12CCCC2 [S37]	2	13 ± 2 mM	
Cc1cc(C)c(S(=O)(=O)C(C)C)c(Cl)n1 [S38]	4	4.7 ± 0.7 mM	
COC(=O)c1cc(C)c(N)c(Br)c1 [S39]	49	28 ± 9 mM	
COc1cc(C(=O)O)c(Br)cc1C [S42]	79	5.4 ± 0.9 mM	
CNC(=O)Nc1nnc(C(C)(C)C)s1 [S44]	7	2.9 ± 0.4 mM	
CN(C)C(=O)c1csc(-c2ccccc2)n1 [S52]	3	2.7 ± 0.4 mM	
Cn1cc(CC(=O)O)c2ccccc21 [S53]	37	3 ± 0.1 mM	
O=C(O)c1cccn(Cc2ccccc2)c1=O [S55]	10	24.7 ± 10.3 mM	
COc1ccc(NS(C)(=O)=O)cc1 [S56]	3	16.8 ± 3.6 mM	
CC(=O)Nc1ccc2nc(C)oc2c1 [S57]	2	5.7 ± 0.4 mM	
OCc1cc(-c2ccccc2)on1 [S58]	19	2.3 ± 0.1 mM	
CCNCc1cc(O)ccc1Br [S59]	13	2 ± 0.3 mM	
O=C(Nc1ccccc1O)c1cccnc1Cl [S60]	24	2.4 ± 0.1 mM	
O=C1NC(=O)C(Cc2ccncc2)S1 (stereo not shown) [S61]	16	3.8 ± 0.3 mM	
COc1cc(C(C)=O)ccc1N [S63]	4	9 ± 1 mM	
COC(=O)c1cc2c(s1)CCC2 [S65]	43	4.5 ± 0.7 mM	
Nc1ccc2sc(C(=O)O)cc2c1 [S66]	44	11.6 ± 0.1 mM	
O=c1c(-c2ccn[nH]2)cnc2sccn12 [compound 1]	16	0.8 ± 0.1 mM	STD amplification factor (murine langerin [5]; Figure 2e thiazolopyrimidine SAR, proton in 7-position, [P] = 20 μM, [L] = 0.5–1 mM, tsat = 1 s): 1.8
